Data taken from the NIST ThermoML archive (doi:10.1021/je900632q).

Experiment: xn = mol fraction of the nth substance listed
Conditions: 101 kPa, Liquid

CCCCn1cc[n+](C)c1.N#CN=C=[N-] [1-butyl-3-methylimidazolium dicyanamide] + O
Conditions | mass density [kg/m3] | viscosity [mPa·s]
278.15 K, x2 = 0 | 1075.8 | 82.07
278.15 K, x2 = 0.059 | 1075.3 | 74.2
278.15 K, x2 = 0.1963 | 1074.3 | 58.7
278.15 K, x2 = 0.2736 | 1072.8 | 48.94
278.15 K, x2 = 0.35 | 1071.1 | 37.6
278.15 K, x2 = 0.3974 | 1069.4 | 31.98
278.15 K, x2 = 0.4831 | 1066.2 | 23.22
288.15 K, x2 = 0 | 1069.4 | 48.93
288.15 K, x2 = 0.059 | 1068.9 | 44.99
288.15 K, x2 = 0.1963 | 1067.8 | 36.45
288.15 K, x2 = 0.2736 | 1066.4 | 30.87
288.15 K, x2 = 0.35 | 1064.6 | 24.28
288.15 K, x2 = 0.3974 | 1062.9 | 20.88
288.15 K, x2 = 0.4831 | 1059.6 | 15.38
298.15 K, x2 = 0 | 1063.1 | 31.8
298.15 K, x2 = 0.059 | 1062.5 | 29.55
298.15 K, x2 = 0.1963 | 1061.4 | 24.4
298.15 K, x2 = 0.2736 | 1059.9 | 20.94
298.15 K, x2 = 0.35 | 1059.1 | 16.75
298.15 K, x2 = 0.3974 | 1056.3 | 14.52
298.15 K, x2 = 0.4831 | 1052.9 | 10.8
308.15 K, x2 = 0 | 1056.8 | 21.79
308.15 K, x2 = 0.059 | 1056.2 | 20.6
308.15 K, x2 = 0.1963 | 1055 | 17.29
308.15 K, x2 = 0.2736 | 1053.6 | 15
308.15 K, x2 = 0.35 | 1051.6 | 12.16
308.15 K, x2 = 0.3974 | 1049.8 | 10.61
308.15 K, x2 = 0.4831 | 1046.2 | 7.951
318.15 K, x2 = 0 | 1050.6 | 15.88
318.15 K, x2 = 0.059 | 1050.1 | 15.09
318.15 K, x2 = 0.1963 | 1048.7 | 12.82
318.15 K, x2 = 0.2736 | 1047.3 | 11.22
318.15 K, x2 = 0.35 | 1045.2 | 9.198
318.15 K, x2 = 0.3974 | 1043.3 | 8.072
318.15 K, x2 = 0.4831 | 1039.6 | 6.072
328.15 K, x2 = 0 | 1044.4 | 12.06
328.15 K, x2 = 0.059 | 1043.9 | 11.49
328.15 K, x2 = 0.1963 | 1042.4 | 9.885
328.15 K, x2 = 0.2736 | 1041 | 8.702
328.15 K, x2 = 0.35 | 1038.8 | 7.202
328.15 K, x2 = 0.3974 | 1036.9 | 6.346
328.15 K, x2 = 0.4831 | 1033 | 4.792
338.15 K, x2 = 0 | 1038.2 | 9.475
338.15 K, x2 = 0.059 | 1037.7 | 9.047
338.15 K, x2 = 0.1963 | 1036.2 | 7.852
338.15 K, x2 = 0.2736 | 1034.7 | 6.95
338.15 K, x2 = 0.35 | 1032.4 | 5.798
338.15 K, x2 = 0.3974 | 1030.5 | 5.126
338.15 K, x2 = 0.4831 | 1026.4 | 3.884
348.15 K, x2 = 0 | 1032.1 | 7.643
348.15 K, x2 = 0.059 | 1031.5 | 7.314
348.15 K, x2 = 0.1963 | 1030 | 6.397
348.15 K, x2 = 0.2736 | 1028.5 | 5.688
348.15 K, x2 = 0.35 | 1026.1 | 4.777
348.15 K, x2 = 0.3974 | 1024.1 | 4.237
348.15 K, x2 = 0.4831 | 1019.8 | 3.223
358.15 K, x2 = 0 | 1025.8 | 6.304
358.15 K, x2 = 0.059 | 1025.3 | 6.048
358.15 K, x2 = 0.1963 | 1023.8 | 5.322
358.15 K, x2 = 0.2736 | 1022.3 | 4.748
358.15 K, x2 = 0.35 | 1019.8 | 4.007
358.15 K, x2 = 0.3974 | 1017.7 | 3.577
358.15 K, x2 = 0.4831 | 1013.2 | 2.711
